These compounds were tested on P. falciparum 3D7 growth, pLDH absorbance (assay: blood-stage malaria parasite growth potency – strain 3D7, dose response (AID 2305)).

SMILES	IC50 [nM]
Cc1cnc(CN(Cc2ccc(-c3ccc(CNCCc4ccc(S(C)(=O)=O)cc4)cn3)cc2)C(=O)c2ccc([N+](=O)[O-])c(C)c2)cn1	920
COc1cc(C2C(Oc3ccccc3)C(=O)N2Cc2ccc(F)cc2)cc(OC)c1OC (configuration not stated)	960
Cc1cccc2[nH]c(-c3ccc(-c4cccc(NC(=O)C(C)CN(C)C)c4)s3)nc12 (configuration not stated)	720
Cn1cncc1CCN(Cc1ccc(-c2ccc(C(F)(F)F)cc2)cc1)C(=O)Cn1c(SCc2cccc(F)c2F)cc(=O)c2ccccc21	990
CS(=O)(=O)c1ccc(-c2cc(C(F)(F)F)nc(N[C@@H]3CCCC[C@H]3OCc3ccccc3)n2)cc1	60
O=C(Nc1ccc2c(c1)CCNCC2)Nc1ccc2ccccc2c1	620
COc1ccc(-c2ccc(NC(=O)c3ccc(Cl)cc3)cc2)cc1CN1CCC(O)CC1	1090
Clc1cc(Nc2ncnc3cc(C#C[C@H]4CCCN4)sc23)cc2[nH]c(Cc3ccccc3)nc12	850
CCOc1cccc2nc(NCCCNCc3ccc(Cl)c(Cl)c3)cc(NCCCNCc3ccc(Cl)c(Cl)c3)c12	570
C[C@@H](NC(=O)NC(CCN1CCC2(CC1)CN(S(C)(=O)=O)c1ccccc12)c1ccc(Cl)c(Cl)c1)c1ccccc1 (some centres not stated)	900
CCNc1cc(C(=O)N[C@@H](Cc2ccccc2)[C@H](O)CNC2CCSCC2)cc(N2CCCC2=O)c1	130
O=C(/C=C/c1ccc(Cl)c(Cl)c1)NCCCCCN1CCC(NC(=S)Nc2ccc(Cl)cc2)CC1	440
O=C(/C=C/c1ccccc1Cl)Nc1ccc(Br)c(OCCN2CCC(O)(c3ccccc3)CC2)c1	480
O=C(O)c1cc(OCC(O)COc2ccc(O)c(C(=O)O)c2)ccc1O	230
O=C(Nc1ccc(-c2cccc(-c3nc4ccccc4[nH]3)c2)cc1)Nc1ccc2c(c1)OCO2	250
O=C(NC1CC1)c1ccc(N2CCOc3ccc(Cl)cc32)s1	800
CN(C)CCCn1cc(C(=O)OC2C[C@H]3CC[C@@H](C2)N3C)c2cc(-c3ccccc3)ccc21 (some centres not stated)	840
Cc1c(CC(=O)NCCC2CCN(CCCCCNC(=O)/C=C/c3ccc(Cl)c(Cl)c3)CC2)sc2ccc(Cl)cc12	880
CCN(C(=O)c1ccc(NC(=O)c2cccs2)cc1)c1nc2c(C)cccc2s1	850
CN1CCN(Cc2ccc(-c3ccc4c(Nc5ccc(Oc6ccccc6)cc5)ccnc4c3)o2)CC1	180
O=C(C=Cc1cccs1)N(CCCn1ccnc1)c1nc2ccc(F)cc2s1	1600
Cc1cc(NC2CCN(CC3CCCCC3)CC2)nc(Nc2ccccc2Cl)n1	640
CCN(CC)CCN(Cc1ccc(-c2ccc(C(F)(F)F)cc2)cc1)C(=O)Cn1c(SCc2ccc(F)cc2)cc(=O)c2ccccc21	750
CO/C(=C\C=C\c1cc2cc(Cl)c(Cl)cc2[nH]1)C(=O)NCCCN1CCN(c2cccc(Cl)c2)CC1	730
CS(=O)(=O)Nc1ccc2[nH]cc(C3CCN(CC4CCC(NC(=O)/C=C/c5ccccc5Cl)CC4)CC3)c2c1 (configuration not stated)	790

SMILES	IC50 [nM]
CCCNCc1ccc(-c2ccc(CN(Cc3cnc(C)cn3)C(=O)c3nn(-c4ccccc4)nc3C)cc2)nc1	420
COc1ccc(-c2cnc(N)nc2N)cc1Cl	1400
O=C(/C=C/c1ccc(Cl)c(Cl)c1)NCCCCCN1CCCC(C(=O)Nc2ccc(Cl)c(Cl)c2)C1 (configuration not stated)	780
COc1ccc(CNCc2cccc(-c3cccc(-c4nc5ccc(F)cc5[nH]4)c3)c2)cc1	300
CCCOc1ccc(C(F)(F)F)cc1NC(=O)c1nc2nc(C)cc(C)n2n1	250
Nc1nc2c(ncn2OC[C@H]2COP(=O)(O)CO2)c(=O)[nH]1	570
C[C@@H](N)C#Cc1cc2c(Nc3ccc(OCc4cccc(F)c4)c(Cl)c3)ncnc2s1	1060
Cc1cccc2[nH]c(-c3cccc(-c4ccc(NC(=O)Nc5ccc(Cl)c(Cl)c5)cc4)c3)nc12	570
Oc1ccc2nc(N3CCNCC3)nc(NCCCc3ccccc3)c2c1	1370
N#Cc1ccc(-c2ccc(C(=O)Nc3ccc4c(c3)CCN(C3CCC3)CC4)nc2)cc1	700
COc1ccccc1OCCN(CC(O)COc1cccc2[nH]c3ccccc3c12)CC(O)COc1cccc2[nH]c3ccccc3c12 (configuration not stated)	640
OCCNc1nc(Nc2ccccc2)nc2ccccc12	130
CC(C)CCN(Cc1cncn1Cc1cccc(C(F)(F)F)c1)C(=O)c1cncc(-c2ccccc2)c1	770
O=c1n(CC2CCCCC2)c2cc(Cl)cc(OCCNc3ccncc3)c2n1CC1CCCCC1	590
COc1ccc(Cc2c(C)nc3nc(N)nc(N)c3c2C)cc1	280
Cc1ccc(O)cc1C[C@@H]1C(=O)CC[C@@]2(C)[C@H]1CC[C@]2(C)O	960
Cc1cccc2[nH]c(-c3cccc(-c4cccc(CN5CCC(CO)CC5)c4)c3)nc12	720
CCn1c(C)cc(C=C2SC(=Nc3ccccc3)NC2=O)c1C	680
CC(C)c1ccc(CN2CCCCC(NC(=O)c3cc(-c4ccccc4Cl)cs3)C2)cc1 (configuration not stated)	1120
CN1CCN(CCCN(Cc2csc(-c3ccc(CNCc4ccccc4)cc3)n2)C(=O)Nc2cc(Cl)cc(Cl)c2)CC1	700
Cc1cnc(NC(=O)c2cn(-c3ccccc3)nc2-c2cccs2)s1	950
COc1nc2c(CCN3CC[C@H](NCc4cc(C#N)c5c(c4)CCO5)[C@H](O)C3)ccnc2cc1F	350
CCC1(C)CC(CCNCc2ccccc2O)(c2ccc(F)cc2)CCO1 (configuration not stated)	880
Fc1ccccc1C=NNc1ccnc2ccc(C(F)(F)F)cc12	870
CN1CC(c2ccc(Cl)c(Cl)c2)OC1=N (configuration not stated)	280

SMILES	IC50 [nM]
COc1cccc(C2CCCN(CCCCNC(=O)c3ccc(NC(=O)c4ccc(Cl)cc4)cc3)C2)c1 (configuration not stated)	860
Cc1ccc2nc(C)cc(NN=CC=Cc3ccccc3)c2c1	840
CCCCCCNC(=O)C1Cc2c([nH]c3ccc(Br)cc23)C2(CCN(CCc3ccccc3)CC2)N1 (configuration not stated)	790
O=C(/C=C/c1ccccc1Cl)Nc1ccc(Br)c(OCCN2CCN(CCN3CCCC3)CC2)c1	650
Cn1nccc1C(=O)NCCNCc1cccc(-c2ccc(-c3nc4ccc(C(F)(F)F)cc4[nH]3)cc2)c1	120
Cc1cccc(CN2CCN(c3ncc(C(=O)NC4CC4)cc3Cl)CC2)c1	1310
Cc1c(O)cccc1Nc1ccnc2ccc(C(F)(F)F)cc12	30
Oc1ccc2[nH]cc(C3CCN(CCC(c4ccccc4)c4ccccc4)CC3)c2c1	990
N#Cc1cc(C(=O)c2cc(Cl)ccc2O)cn(-c2cccc(C(F)(F)F)c2)c1=O	1130
COc1cc(NCCCNCC2c3ccccc3Oc3ccccc32)nc2ccccc12	330
O=C(/C=C/c1ccc(Cl)c(Cl)c1)NCCCCCN1CCC(C(=O)Nc2cccc(Cl)c2)CC1	680
CN(CCC(O)c1ccc(Cl)c(Cl)c1)C[C@H]1C[C@@H]1C(=O)c1ccccc1 (some centres not stated)	790
Oc1ccc(CCCNc2nc(NCc3cccc4ccccc34)nc(N3CCCNCC3)n2)cc1	990
CNC(=O)c1ccccc1Nc1cc(Nc2cc(OC)ccn2)ncc1Cl	930
COc1ccc(S(=O)(=O)Nc2ccc(C(=O)NCc3ccccc3C(F)(F)F)cc2)cc1N1CCN(CC2CC2)CC1	1150
Cc1ccc(CN(Cc2ccc(C(=O)N(C)C)cc2)Cc2ccc3c(c2)OCCO3)cc1C	800
O=C(Nc1ccsc1)Nc1cccc(-c2cccc(-c3nc4ccccc4[nH]3)c2)c1	120
COc1ccc(Nc2ccnc3cc4ccccc4cc23)cc1	680
CCNc1cc(C(=O)N[C@@H](Cc2ccccc2)[C@H](O)CNCc2cc(C#N)ccc2OC)cc(N2CCCC2=O)c1	1230
O=C(Nc1ccc(-c2cccc(-c3nc4ccc(F)cc4[nH]3)c2)cc1)c1ccncc1	720
CCc1cccc(OCC2CCCN(c3ccc(C(=O)NC4CC4)cn3)C2)c1 (configuration not stated)	1440
Fc1ccc2[nH]c3c(NCCCN4CCOCC4)ncnc3c2c1	710
COc1ccc2nccc([C@@H](O)CN3CCC(NC(=O)c4cc5ccccc5[nH]4)CC3)c2c1	970
Cc1cccc2[nH]c(-c3cccc(-c4ccc(NC(=O)c5cnccc5C(F)(F)F)cc4)c3)nc12	700
O=S(=O)(c1cccc(Br)c1)N1CCCCC(c2ccc(C(F)(F)F)cc2)=N1	550

SMILES	IC50 [nM]
c1ccc(CN2CCc3cc4nccc(N5CCNCC5)c4cc32)cc1	400
COc1cc(OC)cc(-c2nn(-c3ccc([N+](=O)[O-])cc3C#N)c(=S)n2CC2CCCO2)c1 (configuration not stated)	850
CCn1c(Sc2ccc(C#N)c([N+](=O)[O-])c2)nnc1-c1cc(OC)cc(OC)c1	570
CCc1cc2c(O)c([N+](=O)[O-])c(=O)oc2cc1OCCCCCOc1cc2oc(=O)c([N+](=O)[O-])c(O)c2cc1CC	260
CCn1c(-c2nonc2N)nc2c(-c3ccccc3)ncc(OCCCCNCCc3ncc[nH]3)c21	850
Cc1ccccc1OCC(=O)Nc1ccc(-c2nc3cc4ccccc4cc3[nH]2)cc1	750
CCN1CCc2nc3ccccc3c(C(=O)Nc3ccc(C#N)cc3)c2C1	780
Nn1c(=O)oc2ccc(Cl)cc2c1=O	190
Cn1nc(-c2cccc(CNC3CCc4ccccc43)c2)c2cnc(NCCCN3CCCC3)nc21 (configuration not stated)	880
COc1ccc(O)c(C(=O)c2cc(C(=O)NCCc3ccccc3)c(=O)n(CCc3ccccc3)c2)c1	1010
Fc1ccc2nc(-c3ccc(-c4ccc(CNCCc5ccncc5)cc4)s3)[nH]c2c1	140
CC(O)C1CCCCN1C(=O)c1cccc(-c2cccc(-c3nc4ccc(F)cc4[nH]3)c2)c1 (configuration not stated)	540
Cc1cccc(Nc2nccc(NCC(O)c3cccc(C(F)(F)F)c3)n2)c1 (configuration not stated)	510
CCN1CCCC(CNC(=O)/C(=C/C=C/c2cc3cc(Cl)c(Cl)cc3[nH]2)OC)C1 (configuration not stated)	890
Cc1nc(-c2cccc(Nc3ccnc4cc(-c5nccs5)ccc34)c2)no1	320
CC(C)(C)OC(=O)Cn1cnc2cc(NC(=O)c3cc([N+](=O)[O-])cc([N+](=O)[O-])c3)ccc21	310
CC(C)NCc1cccc(-c2ccc(-c3nc4ccc(C(F)(F)F)cc4[nH]3)cc2)c1	190
COc1ccc(NC(=O)Nc2cccc(-c3ccc(-c4nc5ccc(C(F)(F)F)cc5[nH]4)cc3)c2)cc1	450
CN(CCN1CCCC1)c1nc2ccc(-n3cnc4cc(-c5ccc(Cl)cc5)sc4c3=O)cc2[nH]1	820
COc1ccc(CC(=O)NC(CCCN2CCC(c3ccccc3)CC2)c2ccc(Cl)c(Cl)c2)cc1OC (configuration not stated)	1050
Nc1cccc(CNCc2ccc(-c3cccc(-c4nc5ccc(F)cc5[nH]4)c3)cc2)c1	210
O=C(O)/C=C/c1cccc(F)c1F	100
